From article PMC6800772 (Molecular microbiology, 2019) come the findings set out here.

The experiment deals with Pdr5 (Saccharomyces cerevisiae, UniProt P33302, A666G). The experiment can be described thus: inhibition of R6G transport in whole cells. It is filed as cell-based.

By IC50 is commonly meant the concentration needed to halve the response being measured. A high value points to lower potency.

SMILES strings stand for the structures. Where a name gives a salt, the structure may show the parent alone.

Chain of Pdr5 (P33302 whole entry A666G): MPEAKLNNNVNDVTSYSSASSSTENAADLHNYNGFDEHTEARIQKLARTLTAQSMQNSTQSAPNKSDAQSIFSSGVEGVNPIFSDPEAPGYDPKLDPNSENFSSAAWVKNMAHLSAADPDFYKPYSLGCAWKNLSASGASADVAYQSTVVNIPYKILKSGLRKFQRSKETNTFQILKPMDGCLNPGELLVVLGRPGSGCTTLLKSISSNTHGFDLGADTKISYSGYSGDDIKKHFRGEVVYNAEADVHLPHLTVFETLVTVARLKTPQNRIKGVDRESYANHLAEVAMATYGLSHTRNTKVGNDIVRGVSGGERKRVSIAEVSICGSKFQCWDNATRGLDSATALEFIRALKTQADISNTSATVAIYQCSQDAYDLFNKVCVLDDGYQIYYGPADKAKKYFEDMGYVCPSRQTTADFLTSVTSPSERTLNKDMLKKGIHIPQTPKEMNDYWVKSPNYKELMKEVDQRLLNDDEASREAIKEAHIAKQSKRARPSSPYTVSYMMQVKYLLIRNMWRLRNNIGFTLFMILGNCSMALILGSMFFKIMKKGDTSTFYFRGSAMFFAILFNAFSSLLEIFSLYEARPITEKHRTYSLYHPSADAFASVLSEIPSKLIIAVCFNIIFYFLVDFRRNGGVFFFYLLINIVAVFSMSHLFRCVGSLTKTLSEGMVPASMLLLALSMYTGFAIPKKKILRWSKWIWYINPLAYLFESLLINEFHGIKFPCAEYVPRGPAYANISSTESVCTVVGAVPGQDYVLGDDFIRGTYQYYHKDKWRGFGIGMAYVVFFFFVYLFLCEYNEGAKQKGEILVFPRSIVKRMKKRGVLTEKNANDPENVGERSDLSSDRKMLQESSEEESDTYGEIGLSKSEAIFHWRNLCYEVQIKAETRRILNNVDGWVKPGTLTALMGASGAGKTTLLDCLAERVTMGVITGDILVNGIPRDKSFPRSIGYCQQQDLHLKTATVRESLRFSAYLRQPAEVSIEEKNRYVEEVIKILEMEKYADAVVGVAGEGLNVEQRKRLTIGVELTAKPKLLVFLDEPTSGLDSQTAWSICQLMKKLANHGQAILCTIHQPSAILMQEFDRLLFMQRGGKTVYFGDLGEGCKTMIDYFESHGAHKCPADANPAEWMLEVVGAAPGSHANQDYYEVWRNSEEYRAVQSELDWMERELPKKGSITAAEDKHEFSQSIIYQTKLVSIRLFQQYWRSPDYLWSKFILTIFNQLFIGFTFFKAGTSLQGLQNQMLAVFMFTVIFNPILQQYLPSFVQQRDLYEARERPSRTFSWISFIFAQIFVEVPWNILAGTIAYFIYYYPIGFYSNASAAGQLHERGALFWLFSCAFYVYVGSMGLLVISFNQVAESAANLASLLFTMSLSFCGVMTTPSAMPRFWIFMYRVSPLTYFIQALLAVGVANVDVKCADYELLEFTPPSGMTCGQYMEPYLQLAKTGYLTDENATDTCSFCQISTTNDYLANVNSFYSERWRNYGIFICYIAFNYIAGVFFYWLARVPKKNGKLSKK

As to `C=CCOC(Cn1ccnc1)c1ccc(Cl)cc1Cl` (stereo not shown) [imazalil sulfate], the IC50 was about 100 µM.
